According to ChEMBL document CHEMBL5260810, “Inhibition of bromodomain-containing protein 9 for the prevention of epigenetically-defined drug resistance” (Bioorg Med Chem Lett, 2017):

Tests used:
Type in all cases: functional, cell-based
[1] = Cytotoxicity against human OVSAHO cells measured after 8 days; settings: 192 h
[2] = Cytotoxicity against human UM-RC-7 cells measured after 8 days; settings: UM-RC-7, 192 h
Capan-2 = assay: Cytotoxicity against human Capan-2 cells measured after 8 days; settings: Capan-2, 192 h
23132-87 = assay: Cytotoxicity against human 23132-87 cells measured after 8 days; settings: 23132-87, 192 h
[3] = Cytotoxicity against human COLO 685 cells measured after 8 days; settings: COLO 685, 192 h
KALS-1 = assay: Cytotoxicity against human KALS-1 cells measured after 8 days; settings: KALS-1, 192 h
[4] = Cytotoxicity against human KMS-26 cells measured after 8 days; settings: KMS-26, 192 h
OVCAR-5 = assay: Cytotoxicity against human OVCAR-5 cells measured after 8 days; settings: OVCAR-5, 192 h
[5] = Cytotoxicity against human GR-M cells measured after 8 days; settings: 192 h
[6] = Cytotoxicity against human KPR3070 cells measured after 8 days; settings: KPR3070, 192 h
KYSE-520 cell line = assay: Cytotoxicity against human KYSE520 cells measured after 8 days; settings: KYSE-520, 192 h
COLO 201 = assay: Cytotoxicity against human COLO201 cells measured after 8 days; settings: COLO 201, 192 h
MHH-ES-1 = assay: Cytotoxicity against human MHH-ES-1 cells measured after 8 days; settings: MHH-ES-1, 192 h
[7] = Cytotoxicity against human 624-mel cells measured after 8 days; settings: Homo sapiens, 624, 192 h
[8] = Cytotoxicity against human HCC1623 cells measured after 8 days; settings: HCC1623, 192 h
[9] = Cytotoxicity against human OE21 cells measured after 8 days; settings: OE21, 192 h
SET-2 = assay: Cytotoxicity against human SET2 cells measured after 8 days; settings: SET-2, 192 h
SK-N-BE(2) = assay: Cytotoxicity against human SK-N-BE(2) cells measured after 8 days; settings: SKNBE2, 192 h
[10] = Cytotoxicity against human Panc 02.03 cells measured after 8 days; settings: Panc 02.03, 192 h
Hep 3B2 = assay: Cytotoxicity against human Hep 3B2.1-7 cells measured after 8 days; settings: Hep3B, 192 h
OE19 = assay: Cytotoxicity against human OE19 cells measured after 8 days; settings: OE19, 192 h
NCI-H2170 = assay: Cytotoxicity against human NCI-H2170 cells measured after 8 days; settings: NCI-H2170, 192 h
TOV112D = assay: Cytotoxicity against human TOV112D cells measured after 8 days; settings: 192 h
C2BBe1 = assay: Cytotoxicity against human C2BBe1 cells measured after 8 days; settings: C2BBe1, 192 h
[11] = Cytotoxicity against human HCC1576 cells measured after 8 days; settings: HCC1576, 192 h
HN = assay: Cytotoxicity against human HN cells measured after 8 days; settings: 192 h
SNU-16 = assay: Cytotoxicity against human SNU-16 cells measured after 8 days; settings: SNU-16, 192 h
NOMO-1 = assay: Cytotoxicity against human NOMO-1 cells measured after 8 days; settings: NOMO-1, 192 h
T98G = assay: Cytotoxicity against human T98G cells measured after 8 days; settings: 192 h
[12] = Cytotoxicity against human NCE-G 130 cells measured after 8 days; settings: NCE-G 130, 192 h
[13] = Cytotoxicity against human SUIT-2 cells measured after 8 days; settings: SUIT-2, 192 h
G-401 = assay: Cytotoxicity against human G-401 cells measured after 8 days; settings: G-401, 192 h
KP-N-YN = assay: Cytotoxicity against human KP-N-YN cells measured after 8 days; settings: 192 h
TMD8 = assay: Cytotoxicity against human TMD8 cells measured after 8 days; settings: TMD8, 192 h
B16-F1 = assay: Cytotoxicity against mouse B16-F1 cells measured after 8 days; settings: B16-F1, 192 h
SK-N-SH = assay: Cytotoxicity against human SK-N-SH cells measured after 8 days; settings: 192 h
EMT6 = assay: Cytotoxicity against mouse EMT6 Luciferase cells measured after 8 days; settings: EMT6, 192 h
SK-N-BE(2)-M17 = assay: Cytotoxicity against human SK-N-BE(2)-M17 cells measured after 8 days; settings: SK-N-BE(2)-M17, 192 h
RL95-2 = assay: Cytotoxicity against human RL95-2 cells measured after 8 days; settings: RL95-2, 192 h
KINGS-1 = assay: Cytotoxicity against human KINGS-1 cells measured after 8 days; settings: KINGS-1, 192 h
[14] = Cytotoxicity against human NCI-H2369 cells measured after 8 days; settings: NCI-H2369, 192 h
AN3-CA = assay: Cytotoxicity against human AN3-CA cells measured after 8 days; settings: 192 h
[15] = Cytotoxicity against human RERF-GC-1B cells measured after 8 days; settings: 192 h
ES-2 = assay: Cytotoxicity against human ES2 cells measured after 8 days; settings: ES-2, 192 h
[16] = Cytotoxicity against human HCC1159 cells measured after 8 days; settings: HCC1159, 192 h
C170 = assay: Cytotoxicity against human C170 cells measured after 8 days; settings: C170, 192 h
[17] = Cytotoxicity against human SBC-7 cells measured after 8 days; settings: SBC-7, 192 h
SCLC-21H = assay: Cytotoxicity against human SCLC-21H cells measured after 8 days; settings: 192 h
[18] = Cytotoxicity against human C32TG cells measured after 8 days; settings: 192 h
G-402 = assay: Cytotoxicity against human G-402 cells measured after 8 days; settings: G-402, 192 h
HuCCT-1 = assay: Cytotoxicity against human HuCCT-1 cells measured after 8 days; settings: HuCCT-1, 192 h
NCI-H187 = assay: Cytotoxicity against human NCI-H187 cells measured after 8 days; settings: NCI-H187, 192 h
[19] = Cytotoxicity against human HCSC-1 cells measured after 8 days; settings: HCSC-1, 192 h
PEO1 = assay: Cytotoxicity against human PEO1 cells measured after 8 days; settings: PEO1, 192 h
[20] = Cytotoxicity against human COV434 cells measured after 8 days; settings: COV434, 192 h
OVCAR-4 = assay: Cytotoxicity against human OVCAR-4 cells measured after 8 days; settings: OVCAR-4, 192 h
[21] = Cytotoxicity against human CL-34 cells measured after 8 days; settings: CL-34, 192 h
769-P = assay: Cytotoxicity against human 769-P cells measured after 8 days; settings: 192 h
EFO-27 = assay: Cytotoxicity against human EFO-27 cells measured after 8 days; settings: EFO-27, 192 h
CHL-1 = assay: Cytotoxicity against human CHL-1 cells measured after 8 days; settings: CHL-1, 192 h
RS4-11 = assay: Cytotoxicity against human RS4-11 cells measured after 8 days; settings: RS4-11, 192 h

Measured: IC50

C/C=C/Cn1cc(-c2ccc(C(=O)N3CCOCC3)cc2)c2cc[nH]c2c1=O
2.11 µM: [4]
13.5 µM: B16-F1
4.76 µM: G-402
11.1 µM: SET-2
15.2 µM: CHL-1
not listed: RS4-11
20 µM: all other assays above

C/C=C/Cn1cc(-c2cc(OC)c(C(=O)N3CCOCC3)cc2OC)c2cc(C)[nH]c2c1=O
2 µM: RS4-11

C/C=C/Cn1cc(-c2ccc(C(C)(C)O)cc2OC)c2cc[nH]c2c1=O
11.7 µM: G-402
15.4 µM: RS4-11
15.2 µM: CHL-1
14.4 µM: KYSE-520 cell line
2.61 µM: [4]
20 µM: all other assays above
